According to ChEMBL document CHEMBL5500383, “Recent advances and future directions on small molecule VEGFR inhibitors in oncological conditions” (Eur J Med Chem, 2024):
pIC50: −log10 of the molar value. Each block holds one molecule with its values, some of them ahead of it.

Experiments:
CAKI-1 = assay: Cytotoxicity against human CAKI-1 cells assessed as reduction in cell growth incubated for 48 hrs by MTT assay; type: functional, cell-based; settings: CAKI-1, 48 h
A498 = assay: Cytotoxicity against human A498 cells assessed as reduction in cell viability incubated for 48 hrs by MTT assay; type: functional, cell-based; settings: A498, 48 h
[1] = biological target: T1, Vascular endothelial growth factor receptor 2 (Homo sapiens, UniProt P35968); assay: Inhibition of human recombinant VEGFR2 using biotinylated poly-GluTyr (4:1) as susbtrate measured for 1 hr by ELISA method
HepG2 [2] = assay: Cytotoxicity against human HepG2 cells assessed as reduction in cell viability measured after 72 hrs by MTT assay; type: functional, cell-based; settings: HepG2, 72 h
HCT-116 [3] = assay: Cytotoxicity against human HCT-116 cells assessed as reduction in cell viability measured after 72 hrs by MTT assay; type: functional, cell-based; settings: HCT-116, 72 h
MCF7 [4] = assay: Cytotoxicity against human MCF7 cells assessed as reduction in cell viability measured after 72 hrs by MTT assay; type: functional, cell-based; settings: MCF7, 72 h
[5] = Cytotoxicity against African green monkey Vero cells assessed as inhibition of cell growth incubated for 24 hrs by MTT assay; type: toxicity, cell-based, Chlorocebus sabaeus
MCF7 [6] = assay: Antiproliferative activity against human MCF7 cells assessed as cell growth inhibition measured for 24 hrs by MTT assay; type: functional, cell-based; settings: MCF7, 24 h
[7] = biological target: T1, Vascular endothelial growth factor receptor 2; assay: Inhibition of VEGFR2 (unknown origin)
Histone deacetylase 1 = Histone deacetylase 1 (Homo sapiens, UniProt Q13547); assay: Inhibition of HDAC1 (unknown origin)
Histone deacetylase 4 = Histone deacetylase 4 (Homo sapiens, UniProt P56524); assay: Inhibition of HDAC4 (unknown origin)
[8] = biological target: T2, Protein deacetylase HDAC6 (Homo sapiens, UniProt Q9UBN7); assay: Inhibition of HDAC6 (unknown origin)
T2 sequence (Q9UBN7 whole entry): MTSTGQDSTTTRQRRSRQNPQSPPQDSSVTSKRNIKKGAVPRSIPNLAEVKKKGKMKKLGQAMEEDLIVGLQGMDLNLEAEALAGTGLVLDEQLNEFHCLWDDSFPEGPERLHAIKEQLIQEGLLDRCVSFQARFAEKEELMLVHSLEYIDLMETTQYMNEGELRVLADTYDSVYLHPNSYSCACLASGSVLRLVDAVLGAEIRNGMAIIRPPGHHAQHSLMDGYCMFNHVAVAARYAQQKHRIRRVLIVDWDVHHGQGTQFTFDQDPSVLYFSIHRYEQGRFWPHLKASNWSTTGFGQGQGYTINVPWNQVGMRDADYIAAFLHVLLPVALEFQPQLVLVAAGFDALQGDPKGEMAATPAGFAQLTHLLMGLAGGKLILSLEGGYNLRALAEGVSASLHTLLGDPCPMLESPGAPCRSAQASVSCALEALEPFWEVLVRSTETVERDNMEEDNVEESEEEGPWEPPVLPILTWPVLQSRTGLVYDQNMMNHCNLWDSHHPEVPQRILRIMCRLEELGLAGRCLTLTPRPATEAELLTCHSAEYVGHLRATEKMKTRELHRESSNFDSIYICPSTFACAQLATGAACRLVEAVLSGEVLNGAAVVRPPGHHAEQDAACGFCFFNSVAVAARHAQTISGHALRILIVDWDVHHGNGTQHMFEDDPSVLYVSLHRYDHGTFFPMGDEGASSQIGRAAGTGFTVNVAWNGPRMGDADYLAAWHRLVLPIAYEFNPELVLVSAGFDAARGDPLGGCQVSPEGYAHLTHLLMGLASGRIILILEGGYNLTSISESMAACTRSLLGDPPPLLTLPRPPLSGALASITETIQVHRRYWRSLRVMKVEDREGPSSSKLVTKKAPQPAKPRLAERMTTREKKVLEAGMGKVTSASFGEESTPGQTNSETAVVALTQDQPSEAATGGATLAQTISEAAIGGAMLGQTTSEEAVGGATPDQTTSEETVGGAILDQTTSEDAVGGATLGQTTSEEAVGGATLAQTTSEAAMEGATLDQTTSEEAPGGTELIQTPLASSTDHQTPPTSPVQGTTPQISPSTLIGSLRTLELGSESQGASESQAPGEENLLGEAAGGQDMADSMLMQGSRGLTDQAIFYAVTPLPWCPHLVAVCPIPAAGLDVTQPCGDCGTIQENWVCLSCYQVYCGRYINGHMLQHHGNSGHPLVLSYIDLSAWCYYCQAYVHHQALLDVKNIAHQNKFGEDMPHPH

[9] = biological target: Vascular endothelial growth factor receptor 1 (Homo sapiens, UniProt P17948); assay: Inhibition of VEGFR1 (unknown origin)
[10] = biological target: Vascular endothelial growth factor receptor 3 (Homo sapiens, UniProt P35916); assay: Inhibition of VEGFR3 (unknown origin)
[11] = biological target: T1, Vascular endothelial growth factor receptor 2; assay: Inhibition of VEGFR2 (unknown origin) by FRET based assay
[12] = biological target: T1, Vascular endothelial growth factor receptor 2; assay: Inhibition of human VEGFR2 by discoverX kinome scan assay
[13] = Cytotoxicity against HUVEC cells assessed as cell growth inhibition incubated for 72 hrs by MTT assay; type: toxicity, cell-based; settings: human
[14] = biological target: T1, Vascular endothelial growth factor receptor 2; assay: Inhibition of VEGFR2 (unknown origin) by kinase profiling assay
[15] = biological target: Serine/threonine-protein kinase B-raf (Homo sapiens, UniProt P15056, V600E); assay: Inhibition of BRAF V600E mutant (unknown origin)
[16] = biological target: RAF proto-oncogene serine/threonine-protein kinase (Homo sapiens, UniProt P04049); assay: Inhibition of C-RAF (unknown origin)
[17] = Inhibition of VEGFR (unknown origin); set-up: species or system Homo sapiens
[18] = biological target: T1, Vascular endothelial growth factor receptor 2; assay: Inhibition of human recombinant VEGFR2
[19] = biological target: Serine/threonine-protein kinase B-raf (Homo sapiens, UniProt P15056); assay: Inhibition of wild type BRAF (unknown origin)
HepG2 [20] = assay: Cytotoxicity against human HepG2 cells assessed as inhibition of cell growth incubated for 48 hrs by MTT assay; type: functional, cell-based; settings: HepG2, 48 h
HCT-116 [21] = assay: Cytotoxicity against human HCT-116 cells assessed as inhibition of cell growth incubated for 48 hrs by MTT assay; type: functional, cell-based; settings: HCT-116, 48 h
MCF7 [22] = assay: Cytotoxicity against human MCF7 cells assessed as inhibition of cell growth incubated for 48 hrs by MTT assay; type: functional, cell-based; settings: MCF7, 48 h
PC-3 = assay: Cytotoxicity against human PC-3 cells assessed as inhibition of cell growth incubated for 48 hrs by MTT assay; type: functional, cell-based; settings: PC-3, 48 h
[23] = biological target: T1, Vascular endothelial growth factor receptor 2; assay: Inhibition of VEGFR2 (unknown origin) incubated for 1 hr in presence of ATP by ELISA method
[24] = biological target: Epidermal growth factor receptor (Homo sapiens, UniProt P00533); assay: Inhibition of EGFR (unknown origin) by DiscoverX KINOMEscan assay
HepG2 [25] = assay: Antiproliferative activity against human HepG2 cells assessed as cell growth inhibition measured for 24 hrs by MTT assay; type: functional, cell-based; settings: HepG2, 24 h
A549 = assay: Antiproliferative activity against human A549 cells assessed as cell growth inhibition measured for 24 hrs by MTT assay; type: functional, cell-based; settings: A549, 24 h
MCF7 [26] = assay: Antiproliferative actiivty against human MCF7 cells assessed as reduction in cell viability by MTT assay; type: functional, cell-based
HCT-116 [27] = assay: Antiproliferative actiivty against human HCT-116 cells assessed as reduction in cell viability by MTT assay; type: functional, cell-based
[28] = Antiproliferative actiivty against human WI-38 cells assessed as reduction in cell viability by MTT assay; type: toxicity, cell-based
[29] = biological target: T1, Vascular endothelial growth factor receptor 2; assay: Inhibition of human VEGFR2

T1 sequence (P35968 whole entry): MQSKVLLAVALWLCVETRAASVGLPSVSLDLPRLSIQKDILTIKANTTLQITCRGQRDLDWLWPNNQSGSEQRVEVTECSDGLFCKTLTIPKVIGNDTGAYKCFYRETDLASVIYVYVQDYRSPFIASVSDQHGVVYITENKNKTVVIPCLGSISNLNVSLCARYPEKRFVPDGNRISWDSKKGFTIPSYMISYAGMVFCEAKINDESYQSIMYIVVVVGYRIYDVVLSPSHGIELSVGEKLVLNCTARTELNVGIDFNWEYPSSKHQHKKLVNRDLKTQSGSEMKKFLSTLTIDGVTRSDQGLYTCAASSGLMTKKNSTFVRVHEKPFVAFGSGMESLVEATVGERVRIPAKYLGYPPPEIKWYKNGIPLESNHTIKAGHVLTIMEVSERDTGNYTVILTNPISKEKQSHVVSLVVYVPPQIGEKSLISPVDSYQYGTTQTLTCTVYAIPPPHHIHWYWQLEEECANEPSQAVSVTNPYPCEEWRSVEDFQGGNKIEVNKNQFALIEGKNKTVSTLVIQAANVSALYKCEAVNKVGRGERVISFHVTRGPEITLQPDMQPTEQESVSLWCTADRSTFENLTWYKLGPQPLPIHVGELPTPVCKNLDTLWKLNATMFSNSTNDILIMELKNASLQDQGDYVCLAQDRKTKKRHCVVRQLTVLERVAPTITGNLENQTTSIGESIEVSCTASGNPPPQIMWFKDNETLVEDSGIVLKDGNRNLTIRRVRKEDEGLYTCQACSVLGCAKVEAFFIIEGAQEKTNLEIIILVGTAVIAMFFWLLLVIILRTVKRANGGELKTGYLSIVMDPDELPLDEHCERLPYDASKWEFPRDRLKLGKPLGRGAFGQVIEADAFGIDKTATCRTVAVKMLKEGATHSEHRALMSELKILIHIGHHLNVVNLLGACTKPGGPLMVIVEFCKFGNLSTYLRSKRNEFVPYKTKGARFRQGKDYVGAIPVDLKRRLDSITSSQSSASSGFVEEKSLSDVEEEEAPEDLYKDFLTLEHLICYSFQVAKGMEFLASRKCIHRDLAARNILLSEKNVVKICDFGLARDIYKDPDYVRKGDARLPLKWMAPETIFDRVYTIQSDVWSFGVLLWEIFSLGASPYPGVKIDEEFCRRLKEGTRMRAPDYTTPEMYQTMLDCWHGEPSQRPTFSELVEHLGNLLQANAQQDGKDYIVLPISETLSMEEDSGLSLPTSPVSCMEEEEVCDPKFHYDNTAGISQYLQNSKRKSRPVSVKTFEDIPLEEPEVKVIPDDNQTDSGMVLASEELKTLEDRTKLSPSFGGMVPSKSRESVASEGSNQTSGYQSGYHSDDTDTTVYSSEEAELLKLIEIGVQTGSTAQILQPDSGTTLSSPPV
Sequence of Histone deacetylase 4 (P56524 whole entry): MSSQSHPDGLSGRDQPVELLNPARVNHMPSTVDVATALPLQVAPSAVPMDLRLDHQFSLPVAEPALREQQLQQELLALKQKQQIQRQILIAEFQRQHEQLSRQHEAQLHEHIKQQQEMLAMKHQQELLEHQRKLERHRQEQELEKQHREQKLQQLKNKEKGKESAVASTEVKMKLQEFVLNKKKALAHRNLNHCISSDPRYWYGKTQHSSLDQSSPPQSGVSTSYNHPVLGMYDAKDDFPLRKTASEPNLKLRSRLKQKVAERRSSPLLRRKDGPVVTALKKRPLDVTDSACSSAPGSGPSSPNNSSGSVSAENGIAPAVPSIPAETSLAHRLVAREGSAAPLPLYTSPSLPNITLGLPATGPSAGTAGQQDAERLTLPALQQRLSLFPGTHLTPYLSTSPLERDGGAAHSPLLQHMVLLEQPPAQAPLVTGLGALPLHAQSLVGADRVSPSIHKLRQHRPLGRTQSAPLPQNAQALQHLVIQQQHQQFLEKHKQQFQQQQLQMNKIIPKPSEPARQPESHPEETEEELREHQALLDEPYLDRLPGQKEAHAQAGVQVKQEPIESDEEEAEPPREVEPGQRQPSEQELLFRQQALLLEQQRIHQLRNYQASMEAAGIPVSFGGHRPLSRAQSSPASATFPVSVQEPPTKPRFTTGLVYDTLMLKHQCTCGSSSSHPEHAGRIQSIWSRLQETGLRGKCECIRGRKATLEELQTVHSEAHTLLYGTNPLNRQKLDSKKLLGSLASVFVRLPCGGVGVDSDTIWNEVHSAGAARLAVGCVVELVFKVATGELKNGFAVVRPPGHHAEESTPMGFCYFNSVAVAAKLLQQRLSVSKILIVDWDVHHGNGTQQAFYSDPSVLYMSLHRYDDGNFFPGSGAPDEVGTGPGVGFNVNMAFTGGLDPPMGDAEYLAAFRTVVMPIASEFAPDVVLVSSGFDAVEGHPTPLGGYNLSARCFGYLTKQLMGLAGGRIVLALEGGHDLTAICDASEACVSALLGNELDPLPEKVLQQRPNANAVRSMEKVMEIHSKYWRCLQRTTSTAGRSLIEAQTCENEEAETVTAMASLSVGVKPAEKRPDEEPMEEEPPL
Sequence of Vascular endothelial growth factor receptor 1 (P17948 whole entry): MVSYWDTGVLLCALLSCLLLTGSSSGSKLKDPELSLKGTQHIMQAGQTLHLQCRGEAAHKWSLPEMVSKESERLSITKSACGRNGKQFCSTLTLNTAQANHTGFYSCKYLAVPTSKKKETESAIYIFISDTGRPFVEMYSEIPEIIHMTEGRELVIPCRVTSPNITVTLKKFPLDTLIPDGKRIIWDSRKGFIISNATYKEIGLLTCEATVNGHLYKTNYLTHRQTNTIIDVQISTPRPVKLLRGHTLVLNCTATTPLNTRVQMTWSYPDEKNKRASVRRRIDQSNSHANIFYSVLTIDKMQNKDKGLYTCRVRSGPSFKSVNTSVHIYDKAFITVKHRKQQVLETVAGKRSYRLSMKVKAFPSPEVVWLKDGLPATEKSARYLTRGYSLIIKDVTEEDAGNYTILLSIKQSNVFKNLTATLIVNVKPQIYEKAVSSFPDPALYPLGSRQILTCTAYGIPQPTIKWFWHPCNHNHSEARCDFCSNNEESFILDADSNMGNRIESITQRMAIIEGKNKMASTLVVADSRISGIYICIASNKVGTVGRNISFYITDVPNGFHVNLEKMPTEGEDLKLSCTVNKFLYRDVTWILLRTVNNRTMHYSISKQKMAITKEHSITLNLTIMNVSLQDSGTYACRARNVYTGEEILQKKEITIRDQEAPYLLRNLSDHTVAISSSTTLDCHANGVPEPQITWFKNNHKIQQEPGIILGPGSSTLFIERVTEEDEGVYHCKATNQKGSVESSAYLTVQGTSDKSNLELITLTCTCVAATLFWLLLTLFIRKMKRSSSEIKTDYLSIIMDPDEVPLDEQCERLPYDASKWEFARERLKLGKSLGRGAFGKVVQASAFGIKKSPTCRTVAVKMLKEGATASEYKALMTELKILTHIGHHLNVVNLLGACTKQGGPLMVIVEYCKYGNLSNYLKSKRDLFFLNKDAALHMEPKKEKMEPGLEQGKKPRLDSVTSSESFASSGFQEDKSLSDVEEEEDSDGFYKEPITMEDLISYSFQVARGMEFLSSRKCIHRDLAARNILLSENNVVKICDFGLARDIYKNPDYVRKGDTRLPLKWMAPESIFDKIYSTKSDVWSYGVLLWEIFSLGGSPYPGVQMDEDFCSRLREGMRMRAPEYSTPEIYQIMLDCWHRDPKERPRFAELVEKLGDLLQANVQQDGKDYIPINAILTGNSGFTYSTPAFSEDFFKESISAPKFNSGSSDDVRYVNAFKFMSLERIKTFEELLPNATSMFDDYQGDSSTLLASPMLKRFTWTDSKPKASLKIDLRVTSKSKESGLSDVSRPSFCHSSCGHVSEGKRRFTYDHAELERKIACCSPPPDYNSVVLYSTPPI
Sequence of Serine/threonine-protein kinase B-raf (Homo sapiens, UniProt P15056, V600E) (P15056 2-766 V600E limits assumed): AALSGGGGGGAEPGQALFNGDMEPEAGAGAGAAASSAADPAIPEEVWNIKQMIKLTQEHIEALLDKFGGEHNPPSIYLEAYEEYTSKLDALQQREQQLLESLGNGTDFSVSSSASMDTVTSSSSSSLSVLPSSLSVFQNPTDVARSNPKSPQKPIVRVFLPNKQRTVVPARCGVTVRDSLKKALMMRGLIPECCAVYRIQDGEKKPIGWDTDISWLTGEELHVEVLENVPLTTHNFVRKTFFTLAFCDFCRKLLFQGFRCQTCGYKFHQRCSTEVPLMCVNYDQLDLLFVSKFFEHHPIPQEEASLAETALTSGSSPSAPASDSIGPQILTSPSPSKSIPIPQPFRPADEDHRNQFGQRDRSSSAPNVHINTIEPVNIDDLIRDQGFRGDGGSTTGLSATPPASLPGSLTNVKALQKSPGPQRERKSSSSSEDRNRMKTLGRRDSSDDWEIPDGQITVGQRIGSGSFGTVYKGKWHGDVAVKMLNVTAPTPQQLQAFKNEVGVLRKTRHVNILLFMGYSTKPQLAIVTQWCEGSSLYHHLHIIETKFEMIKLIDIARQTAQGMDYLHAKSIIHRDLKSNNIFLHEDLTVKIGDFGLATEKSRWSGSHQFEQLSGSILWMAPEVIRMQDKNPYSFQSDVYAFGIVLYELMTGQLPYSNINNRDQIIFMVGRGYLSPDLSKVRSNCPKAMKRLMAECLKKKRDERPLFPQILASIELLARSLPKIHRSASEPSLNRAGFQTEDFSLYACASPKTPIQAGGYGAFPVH
Sequence of Histone deacetylase 1 (Q13547 whole entry): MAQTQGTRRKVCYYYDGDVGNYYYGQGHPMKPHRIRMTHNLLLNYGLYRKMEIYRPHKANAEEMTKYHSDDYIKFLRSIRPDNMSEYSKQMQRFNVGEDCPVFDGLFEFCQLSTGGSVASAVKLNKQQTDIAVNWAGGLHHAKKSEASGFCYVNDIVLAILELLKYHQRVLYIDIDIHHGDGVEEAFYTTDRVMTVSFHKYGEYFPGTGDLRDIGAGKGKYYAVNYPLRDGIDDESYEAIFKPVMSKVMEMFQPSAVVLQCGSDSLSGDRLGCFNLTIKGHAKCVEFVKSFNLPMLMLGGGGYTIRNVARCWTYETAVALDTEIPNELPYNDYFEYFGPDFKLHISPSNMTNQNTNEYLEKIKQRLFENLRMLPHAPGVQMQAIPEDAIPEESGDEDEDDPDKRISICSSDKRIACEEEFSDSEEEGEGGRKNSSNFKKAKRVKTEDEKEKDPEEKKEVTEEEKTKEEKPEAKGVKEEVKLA

SMILES: Cc1ccc(/C=N/n2c(-c3cc4ccccc4[nH]3)n[nH]c2=S)cc1
pIC50 (CAKI-1): 5.20
pIC50 (A498): 5.13

SMILES: Cc1cc(Oc2ncnc3sc4c(c23)CCCCC4)ccc1Cl
pIC50 (MCF7 [6]): 6.18

SMILES: Cc1cc(NS(=O)(=O)c2ccc(NN=C3C(=O)NNC3=O)cc2)no1
pIC50 [1]: 6.82
pIC50 (HepG2 [2]): 5.06
pIC50 (HCT-116 [3]): 5.13
pIC50 (MCF7 [4]): 4.84
IC50 at 24 h [5]: 36.3 µM

SMILES: Cc1[nH]c2ncnc(Nc3ccc(NC(=O)Nc4cccc(C(F)(F)F)c4)c(F)c3)c2c1C
pIC50 [18]: 7.28

SMILES: COc1ccc(/C=N/n2c(-c3cc4ccccc4[nH]3)n[nH]c2=S)cc1
pIC50 (CAKI-1): 5.79
pIC50 (A498): 4.69

SMILES: O=C(CSc1nc2sc3c(c2c(=O)n1-c1ccc(Cl)cc1)CCCC3)NNC(=O)Nc1cccc(C(F)(F)F)c1
pIC50 [7]: 6.95
pIC50 [19]: 7.15
pIC50 [15]: 7.05

SMILES: O=C(NC1=NN2C(=O)/C(=C/c3ccco3)N=C2S1)c1cccs1
pIC50 [7]: 5.03
pIC50 (HepG2 [20]): 5.17
pIC50 (HCT-116 [21]): 5.28
pIC50 (MCF7 [22]): 5.36
pIC50 (PC-3): 5.10

SMILES: C/C(=N\N1C(=O)CNC1=S)c1ccc(O)cc1O
pIC50 [24]: 4.64
pIC50 (MCF7 [6]): 5.65
pIC50 (HepG2 [25]): 5.29
pIC50 (A549): 5.50

Further lines, with some results ahead:

pIC50 [1]: 6.82
SMILES: CCOC(=O)/C(=N\Nc1ccc(S(=O)(=O)Nc2nc(C)cc(C)n2)cc1)C(=O)NNc1ccccc1
pIC50 (HepG2 [2]): 5.05
pIC50 (HCT-116 [3]): 4.99
pIC50 (MCF7 [4]): 4.86
IC50 at 24 h [5]: 59.8 µM

pIC50 [7]: 7.49
pIC50 (Histone deacetylase 1): 6.62
pIC50 (Histone deacetylase 4): < 5.04
pIC50 [8]: 7.20
pIC50 [9]: 7.39
pIC50 [10]: 7.18
SMILES: Cc1c2ccc(Nc3ccnc(Nc4ccc(OCCCCCCC(=O)NO)cc4)n3)cc2nn1C

pIC50 [11]: 7.41
SMILES: O=C(CN1CCN(c2cc(=O)[nH]c3c(-c4ccccc4)cccc23)CC1)Nc1ccc(F)cc1

pIC50 [12]: 4.24
pIC50 [14]: 4.24
SMILES: COc1ccc(-c2nc3c4cc(-c5ccc(OC)cc5)oc4ccn3n2)cc1
IC50 at 72 h [13]: 22.6 µM

pIC50 [15]: < 4.00
pIC50 [16]: < 4.00
pIC50 [17]: 4.69
SMILES: COc1ccc(-n2c(SCC(=O)Nc3ccc(-c4nc5ccccc5[nH]4)cc3)nc3ccccc3c2=O)cc1

pIC50 (Histone deacetylase 4): < 5.00
pIC50 [8]: 5.05
pIC50 [9]: 7.47
pIC50 [10]: 7.43
SMILES: CCCNNC(=O)c1ccc(Nc2nccc(N(C)c3ccc4c(C)n(C)nc4c3)n2)cc1

pIC50 [23]: 3.70
SMILES: COc1cc(-c2nc(SCC(=O)Nc3ccc(C(C)=O)cc3)[nH]c(=O)c2C#N)cc(OC)c1OC

pIC50 [24]: 4.94
pIC50 (MCF7 [6]): 5.79
pIC50 (HepG2 [25]): 5.61
pIC50 (A549): 5.90
SMILES: CCOC(=O)/C(C#N)=C(\c1ccc(O)cc1)N1CC(=O)N(/N=C(\C)c2ccc(O)cc2O)C1=S

pIC50 (MCF7 [26]): 5.45
pIC50 (HCT-116 [27]): 5.37
pIC50 [29]: 6.84
SMILES: O=C(c1ccccc1)n1cc(-c2nc3cc(Cl)ccc3[nH]c2=O)c(=O)[nH]1
pIC50 [28]: 4.00
